How the values were obtained:
cancer cells = assay: Combined TAF10 inhibition and oxaliplatin: confluence, PI staining, FACS cell death; format: cell-based
Method: (§1) Infected cells were inoculated in a 96-well plate (6×10^3 cell/well) to measure the cell growth and the cell growth was recorded every 3 hours using IncuCyte ZOOM (Essen Bioscience), and cell confluence was analyzed using IncuCyte ZOOM 2016A software.
Meanwhile, an increase in the cancer stemness of cancer cells may also cause increased resistance of cancer cells to anticancer agents. Therefore, a colorectal cancer animal model in which TAF10 was inhibited or not was treated with the anticancer agent, oxaliplatin (1 μM concentration) and its therapeutic effect was confirmed.
In addition, as a result of staining cells by treating a PI solution capable of confirming cell death, it was confirmed that proliferation was suppressed when TAF10 was inhibited, and that the number of dying cells increased when treated with oxaliplatin along with TAF10 inhibition (FIG. 9B).
In addition, the degree of cell death through PI and 7-AAD was confirmed through FACS. In this regard, Q1 means NECROSIS, Q2 means LATE APOPTOSIS, Q3 means EARLY APOPTOSIS, and Q4 means live cells. The degree of cell death may be determined by increasing the ratio of Q2. As a result, it was confirmed that the ratio of Q2 increased when TAF10 was inhibited and oxaliplatin was combined, so that it was confirmed that cell death increased (FIG. 9C).

HCT116 [1] = assay: Combined TAF10 inhibition and oxaliplatin in colorectal cancer-inducing animal model; format: in vivo, Nude mice
Method: First, TAF10 WT (wild type) and TAF10 knockdown (KD) cells were prepared in the same manner as in Experimental Example 1-3 using shRNA consisting of a base sequence represented by SEQ ID NO: 7 in HCT116, which was a colorectal cancer cell line. 2×10^6 of TAF10 WT or TAF10 KD was prepared and subcutaneously injected into Nude mice deficient of an immune system. Tumor occurrence was confirmed every two days, and its size was measured. In addition, in order to confirm the effect of combined treatment with anticancer agents, the colorectal cancer-inducing animal model prepared in the same manner as before was divided into four experimental groups, and after 2 weeks (14 days) when the tumor had formed to some extent, a control group was administered with PBS and in the experimental group, oxaliplatin was injected into the abdominal cavity at a concentration of 10 mg/kg every two days.
In addition, the combined effect in vivo was confirmed using a colorectal cancer-inducing animal model prepared by subcutaneously injecting HCT116 in which TAF10 was inhibited or HCT116 in which TAF10 was not inhibited. From two weeks after the tumor in each experimental group was formed, WT and KD were divided into two experimental groups. […]

HT29 = assay: Growth rate of colorectal cancer cell line upon TAF10 inhibition (siRNA); format: cell-based; conditions: FIG. 4A
Method: (§2) Transfection reagents RNAiMAX (Thermo Fisher Scientific) and siRNA (BIONEER Corporation, Daejeon, South Korea) were mixed in an Opti-mem medium at a final concentration of 30 nM. Target cells were cultured with the mixture, and then cells were harvested for RNA extraction after 72 hours of siRNA transfection.
as §1
(§3) Through Example, it was confirmed that the TAF10 inhibition suppressed the growth of HCT116, a colorectal cancer cell line. As a result, the expression genes and proteins related with the growth rate and cell growth and the expression of genes and proteins related to cell cycle arrest were confirmed according to TAF10 inhibition (using siRNA) in HT29 and CACO2 colorectal cancer cell lines, which were other colorectal cancer cell lines. In addition, the cell cycle was confirmed according to TAF10 inhibition, and whether there was an increase in senescent cells was confirmed. The senescent cells were confirmed by staining the senescent cells using a senescence b-galactosidase staining kit (Cell signaling).

CACO2 = assay: as above; format: cell-based; conditions: FIG. 4A
Method: as §2, §1, §3

HCT116 [2] = assay: Cell cycle by FACS (PI staining); format: cell-based; conditions: HCT116, FIG. 5B
Method: The cells were treated with trypsin-EDTA, separated into single cells, washed twice with PBS, and fixed with 70% ethanol for 1 hour at −20° C. After washing again with PBS twice, the cells were treated with 20 μg/ml of RNase A, and flow cytometry analysis was performed through 20 μg/ml of propidium iodide (PI) staining.
as §3

HCT116 [3] = assay: Senescence b-galactosidase staining; format: cell-based; conditions: HCT116, FIG. 5C
HCT116 [4] = assay: qRT-PCR gene expression upon TAF10 inhibition; format: cell-based
HCT116 [5] = assay: Western blot protein expression upon TAF10 inhibition; format: cell-based
Method: Cellular proteins were dissolved and extracted on ice in a lysis buffer (20 mM HEPES (pH 7.2), 150 mM NaCl, 0.5% Triton X-100, 10% glycerol, 0.1% SDS) containing 0.1% protease inhibitor and phosphatase inhibitor cocktail (Thermo-scientific, USA). The proteins were separated through protein electrophoresis (10% gel) and transferred to a PVDF membrane. For Western blot, an anti-TAF10 (ab263967) antibody was purchased from Abcam, anti-AKT1 (2938S), anti-phosphoAkt (2965S), anti-phospho B-raf (#2696), anti-MEK1/2. (#9122), anti-phosphoERK1/2 (#9106), anti-STAT3 (#9139), and anti-phosphoSTAT3 (#9131) antibodies were purchased from Cell signaling, and anti-phospho m-TOR (sc-293133), anti-phosphoMEK1/2 (sc-81503), anti-CyclinE1 (sc-247), anti-CDK2 (sc-6248), and anti-VEGF (sc7269) antibodies were purchased and used from Santacruz. A rabbit polyclonal anti-GAPDH antibody was provided and used from the Korea Research Institute of Bioscience and Biotechnology. The expression of each protein band was confirmed using an enhanced chemiluminescence (ECL) solution.
Through Example, it was confirmed that the TAF10 inhibition suppressed the growth of HCT116, a colorectal cancer cell line. […]

HCT116 [6] = assay: Cell growth (IncuCyte confluence) after siRNA transfection; format: cell-based; conditions: HCT116, siRNA 30 nM, FIG. 2A
Method: as §2
The used siRNAs siNPM1, siTAF10, and siZNHIT1 were as follows. • (SEQ ID NO: 1) siTAF10-SENSE: GUGAAGAAGCCGCACUACU • (SEQ ID NO: 2) siTAF10-ANTISENSE: AGUAGUGCGGCUUCUUCAC • (SEQ ID NO: 3) siNPM1-SENSE: […] GA • (SEQ ID NO: 4) siNPM1-ANTISENSE: […] UC • (SEQ ID NO: 5) siZNHIT1-SENSE: GAGACUGCCUCAGUUUGAU • (SEQ ID NO: 6) siZNHIT1-ANTISENSE: AUCAAACUGAGGCAGUCUC 1-3. Transfection and Transduction of shRNA
as §1
Based on those confirmed in Example 1, NPM1, TAF, or ZNHIT1 of the colorectal cancer cell line HCT116 was inhibited as in Experimental Example 1-2, and its growth ability was confirmed. […] In addition, as a result of confirming overall survival probability when TAF10 is inhibited in The Cancer Genome Atlas (TCGA) as a large-scale cancer database, it was confirmed that the survival probability was increased (see FIG. 2B). […]

| Compound | effect of TAF10 inhibition on the anticancer effect of oxaliplatin (cancer cells; FIG. 9) | cancer confluence (cancer cells; TAF10 inhibited and oxaliplatin 1 μM, FIG. 9A) | ratio of Q2 (LATE APOPTOSIS), FACS PI and 7-AAD (cancer cells; TAF10 inhibited and oxaliplatin combined, FIG. 9C) | number of dying cells (PI staining) (cancer cells; oxaliplatin along with TAF10 inhibition, FIG. 9B) | tumor size (HCT116 [1]; TAF10 KD HCT116, oxaliplatin 10 mg/kg once every two days, after 44 days, FIG. 9E) | tumor size (tumor volume over time) (HCT116 [1]; TAF10 inhibited and oxaliplatin, FIGS. 9D and 9E) | growth rate (HT29) | growth rate (CACO2) | cell cycle (HCT116 [2]) | number of senescent cells (HCT116 [3]) | expression of genes TP53, CDKN1A, and CXCL8 related to cell cycle arrest (HCT116 [4]; FIG. 5A) | expression of genes MKI167, PCNA, and MCM7 related to cell growth (HCT116 [4]; HCT116, FIG. 4B) | expression of proteins Cyclin E1 and CDK2 related to cell cycle arrest (HCT116 [5]; FIG. 5A) | expression of proteins tAkt1, pAkt, pGSK-3β, m-TOR, pB-raf, tMEK1/2, pMEK1/2, and pERK1/2 (HCT116 [5]; HCT116, FIG. 4B) | cell proliferation (HCT116 [6]) |
| --- | --- | --- | --- | --- | --- | --- | --- | --- | --- | --- | --- | --- | --- | --- | --- |
| O=C1[O][Pt]2([NH][C@@H]3CCCC[C@H]3[NH]2)[O]C1=O [oxaliplatin] | synergistic effect | significantly reduced | increased | increased | significantly reduced | significantly reduced | – | – | – | – | – | – | – | – | – |
| siTAF10: siRNA targeting TAF10; sense GUGAAGAAGCCGCACUACU (SEQ ID NO: 1), antisense AGUAGUGCGGCUUCUUCAC (SEQ ID NO: 2) (listed as RNA, chemistry not given here) | – | – | – | – | – | – | reduced | reduced | arrested | increased | increased | reduced | increased | reduced | significantly reduced |

From patent publication US20250368987A1, “COMPOSITION COMPRISING TAF10 INHIBITOR FOR PREVENTING OR TREATING COLORECTAL CANCER” (KOREA ADVANCED INSTITUTE OF SCIENCE AND TECHNOLOGY, priority 2021, published 2025)
